The values that follow come from patent publication US7348425B2, “Inhibitors of HCV replication” (Bristol-Myers Squibb Company, priority 2004, dated 2008).

Like-named read-outs stand apart in the source and are kept apart here.

Assay [1] has as its target T1, HCV NS5B RdRp genotype 1b (Hepatitis C virus genotype 1b, UniProt Q9WMX2).
T1 construct: The protein was expressed with an 18 amino acid C-terminal truncation to enhance the solubility; made in house; host or cells: E. coli BL21 (DE3), pET21a
Nature of the assay: Modified HCV NS5B RdRp enzyme assay (with preincubation). To be noted: modified method (with preincubation). The format is biochemical. The essentials: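 Seven-point IC50s were derived from SPA-based ³H-UTP incorporation after 4 h at 30 °C (Hepes pH 7.5, 2% DMSO). Compound was first mixed with 14 nM Δ18 NS5B genotype 1b enzyme. Then 0.2 nM polyA, 0.29 μM UTP and bead-bound oligo-dT12 (20 nM) were added.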

In the next assay the test system is HCV replicon. Kind of assay: HCV replicon FRET assay. To be noted: Hepatitis C virus. The format is cell-based. The essentials:
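Replicon cells (± Renilla luciferase reporter) incubated with titrated compound at 37 °C; NS3 protease activity read by FRET peptide cleavage (20 uM EDANS/DABCYL substrate, 340/490 nm kinetic) or luciferase.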

In general, IC50 refers to the concentration at which inhibition is half-maximal. Read a high IC50 as lower potency. In general, EC50 refers to the midpoint of the concentration-response curve.

T1 sequence (Q9WMX2 2420-2992): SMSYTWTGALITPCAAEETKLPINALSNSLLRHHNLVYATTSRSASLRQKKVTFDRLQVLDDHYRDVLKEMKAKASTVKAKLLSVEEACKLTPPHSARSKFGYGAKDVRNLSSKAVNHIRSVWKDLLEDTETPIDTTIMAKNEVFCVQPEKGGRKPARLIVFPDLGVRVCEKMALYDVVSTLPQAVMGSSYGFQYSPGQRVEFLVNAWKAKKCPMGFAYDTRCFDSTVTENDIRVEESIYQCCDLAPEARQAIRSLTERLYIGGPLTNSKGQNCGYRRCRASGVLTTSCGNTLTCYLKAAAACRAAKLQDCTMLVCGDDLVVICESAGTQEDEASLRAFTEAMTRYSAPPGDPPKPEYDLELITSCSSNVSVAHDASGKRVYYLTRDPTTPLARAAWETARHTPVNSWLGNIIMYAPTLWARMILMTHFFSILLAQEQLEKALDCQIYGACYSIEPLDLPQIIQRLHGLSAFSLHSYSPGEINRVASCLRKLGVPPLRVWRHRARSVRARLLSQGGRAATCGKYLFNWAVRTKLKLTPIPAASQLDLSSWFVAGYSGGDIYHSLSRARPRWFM

On to `O=C(O)/C=C/c1ccc(NC(=O)C2(NC(=O)c3ccc4c(C5CCCCC5)c5n(c4c3)CC(=O)Nc3ccccc3-5)CCCC2)cc1`, for which, in assay [1], the half-inhibitory concentration (IC50) was 20 to 1000 nM. Besides, the EC50 in the assay on HCV replicon (FRET assay, read-out: EC50) was in the range of 10 to 1000 nM.
The matching figures for `COC(=O)c1ccc2c(C3CCCCC3)c3n(c2c1)CCCc1cc(OCc2cc([N+](=O)[O-])ccc2F)ccc1-3`: over 1000 nM and 1000 to 10000 nM.
The matching figures for `COC(=O)/C=C/c1ccc(NC(=O)C2(NC(=O)c3ccc4c(C5CCCCC5)c5n(c4c3)CCCc3ncccc3-5)CCCC2)cc1`: 20 to 1000 nM and 10 to 1000 nM.
The matching figures for `CN(C)S(=O)(=O)NC(=O)c1ccc2c(C3CCCCC3)c3n(c2c1)C[C@@H](C(=O)N1CCC(N2CCCC2)CC1)Cc1ccccc1-3`: 20 to 1000 nM and 10 to 1000 nM.
In the case of `CN(C)S(=O)(=O)NC(=O)c1ccc2c(C3CCCCC3)c3n(c2c1)C[C@H](C(=O)N1CCC(N2CCCC2)CC1)Cc1ccccc1-3`, the IC50 in assay [1] lay within 20 to 1000 nM. In addition, the 50% effective concentration (EC50) in the assay on HCV replicon (FRET assay, read-out: EC50) is 10 to 1000 nM.
The corresponding values for `O=C(C1=Cc2ccccc2-c2c(C3CCCCC3)c3ccc(C(=O)N4CCOCC4)cc3n2C1)N1CCOCC1` are over 1000 nM and 1000 to 10000 nM.
The corresponding values for `N#Cc1ccc2c(C3CCCCC3)c3n(c2c1)CCCc1ncccc1-3` are over 1000 nM and 10 to 1000 nM.
The corresponding values for `c1cnc2c(c1)-c1c(C3CCCCC3)c3ccc(-c4nnn[nH]4)cc3n1CCC2` are 20 to 1000 nM and 1000 to 10000 nM.
On to `O=C(NS(=O)(=O)C1CC1)c1ccc2c(C3CCCCC3)c3n(c2c1)CCCc1ncccc1-3`, for which the IC50 in assay [1] is 20 to 1000 nM. In addition, the EC50 in the assay with HCV replicon (FRET assay, read-out: EC50) is 10 to 1000 nM.
The matching figures for `O=C(NS(=O)(=O)c1ccccc1)c1ccc2c(C3CCCCC3)c3n(c2c1)CCCc1ncccc1-3`: 20 to 1000 nM and 1000 to 10000 nM.
The corresponding values for `CN(C)S(=O)(=O)NC(=O)c1ccc2c(C3CCCCC3)c3n(c2c1)CCCc1ncccc1-3` are 20 to 1000 nM and 10 to 1000 nM.
The matching figures for `Cn1cnc(S(=O)(=O)NC(=O)c2ccc3c(C4CCCCC4)c4n(c3c2)CCCc2ncccc2-4)c1`: 20 to 1000 nM and 1000 to 10000 nM.
Compound `O=C(c1ccc2c(C3CCCCC3)c3n(c2c1)CC(C(=O)N1CCOCC1)Cc1ccccc1-3)N1CCOCC1` (stereo not drawn) came in with an IC50 in assay [1] of over 1000 nM. For the same compound, the EC50 with HCV replicon (FRET assay, read-out: EC50) was 10 to 1000 nM.
The matching figures for `O=C(O)c1ccc2c(C3CCCCC3)c3c4ccccc4[nH]c(=O)n3c2c1`: over 1000 nM and 10 to 1000 nM.
The matching figures for `CN(C)S(=O)(=O)NC(=O)c1ccc2c(C3CCCCC3)c3n(c2c1)C[C@H](C(=O)N1CCOCC1)Cc1ccccc1-3`: 20 to 1000 nM and 10 to 1000 nM.
The corresponding values for `COC(=O)c1ccc2c(C3CCCCC3)c3n(c2c1)CC(C(=O)N(C)C)=Cc1ccccc1-3` are over 1000 nM and 1000 to 10000 nM.
`CN(C)C(=O)C1=Cc2ccccc2-c2c(C3CCCCC3)c3ccc(C(=O)O)cc3n2C1` came in with an IC50 in assay [1] of 20 to 1000 nM. Further, the concentration for a half-maximal effect (EC50) with HCV replicon (FRET assay, read-out: EC50) lay in the range of 10 to 1000 nM.
The corresponding values for `CN(C)C(=O)C1=Cc2ccccc2-c2c(C3CCCCC3)c3ccc(C(=O)NS(=O)(=O)N(C)C)cc3n2C1` are 20 to 1000 nM and 10 to 1000 nM.
Consider `COC(=O)c1ccc2c(C3CCCCC3)c3n(c2c1)CC(C(=O)O)=Cc1cc(OCc2ccccc2)ccc1-3`, for which, in assay [1], the concentration for half-maximal inhibition (IC50) is over 1000 nM. The concentration for a half-maximal effect (EC50) with HCV replicon (FRET assay, read-out: EC50) lay within 1000 to 10000 nM.
On to `COC(=O)c1ccc2c(C3CCCCC3)c3n(c2c1)CC(C(=O)N1C[C@@H](C)O[C@@H](C)C1)=Cc1ccccc1-3`, for which, in assay [1], the 50% inhibitory concentration (IC50) was over 1000 nM. Further, in the assay on HCV replicon (FRET assay, read-out: EC50), the EC50 was in the range of 1000 to 10000 nM.
Take `C[C@@H]1CN(C(=O)C2=Cc3ccccc3-c3c(C4CCCCC4)c4ccc(C(=O)O)cc4n3C2)C[C@H](C)O1`: the IC50 in assay [1] lay in the range of 20 to 1000 nM. In addition, in the assay on HCV replicon (FRET assay, read-out: EC50), the EC50 fell in the range of 10 to 1000 nM.
The corresponding values for `C[C@@H]1CN(C(=O)C2=Cc3ccccc3-c3c(C4CCCCC4)c4ccc(C(=O)NS(=O)(=O)N(C)C)cc4n3C2)C[C@H](C)O1` are 20 to 1000 nM and 10 to 1000 nM.
The corresponding values for `COC(=O)C1=Cc2ccncc2-c2c(C3CCCCC3)c3ccc(C(=O)OC)cc3n2C1` are over 1000 nM and 1000 to 10000 nM.
In turn, `COC(=O)C1=Cc2cccnc2-c2c(C3CCCCC3)c3ccc(C(=O)OC)cc3n2C1` registered an IC50 in assay [1] of over 1000 nM. Moreover, in the assay on HCV replicon (FRET assay, read-out: EC50), the concentration giving a half-maximal response (EC50) was in the range of 1000 to 10000 nM.
The matching figures for `COC(=O)c1ccc2c(C3CCCCC3)c3n(c2c1)CC(C(=O)N1CCOCC1)=Cc1cccnc1-3`: over 1000 nM and 1000 to 10000 nM.
`COC(=O)c1ccc2c(C3CCCCC3)c3n(c2c1)CC(C(=O)N1CCOCC1)=Cc1ccncc1-3`: the IC50 in assay [1] was over 1000 nM. Besides, in the assay on HCV replicon (FRET assay, read-out: EC50), the 50% effective concentration (EC50) was 1000 to 10000 nM.
In assay [1], `O=C(O)c1ccc2c(C3CCCCC3)c3n(c2c1)CC(C(=O)N1CCOCC1)=Cc1cccnc1-3` gave a 50% inhibitory concentration (IC50) of 20 to 1000 nM. Moreover, in the assay with HCV replicon (FRET assay, read-out: EC50), the EC50 is 10 to 1000 nM.
The corresponding values for `O=C(NS(=O)(=O)C1CC1)c1ccc2c(C3CCCCC3)c3n(c2c1)CC(C(=O)N1CCOCC1)=Cc1ccccc1-3` are 20 to 1000 nM and 10 to 1000 nM.
In turn, `CS(=O)(=O)NC(=O)c1ccc2c(C3CCCCC3)c3n(c2c1)CC(C(=O)N1CCOCC1)=Cc1ccccc1-3` displayed an IC50 in assay [1] of 20 to 1000 nM. For the same compound, in the assay on HCV replicon (FRET assay, read-out: EC50), the EC50 is 10 to 1000 nM.
The corresponding values for `O=C(O)c1ccc2c(C3CCCCC3)c3n(c2c1)CC(C(=O)N1CCOCC1)Cc1cccnc1-3` (stereo not drawn) are 20 to 1000 nM and 1000 to 10000 nM.
The corresponding values for `CN(C)S(=O)(=O)NC(=O)c1ccc2c(C3CCCCC3)c3n(c2c1)CC(C(=O)N1CCOCC1)=Cc1cccnc1-3` are 20 to 1000 nM and 10 to 1000 nM.
The matching figures for `COC(=O)c1ccc2c(C3CCCCC3)c3n(c2c1)CC(N1CCOCC1)Cc1ccccc1-3` (stereo not drawn): over 1000 nM and 10 to 1000 nM.
In the case of `O=C(O)c1ccc2c(C3CCCCC3)c3n(c2c1)CC(N1CCOCC1)Cc1ccccc1-3` (stereo not drawn), the IC50 in assay [1] lay within 20 to 1000 nM. The half-maximal effective concentration (EC50) with HCV replicon (FRET assay, read-out: EC50) fell in the range of 10 to 1000 nM.
The matching figures for `COC(=O)c1ccc2c(C3CCCCC3)c3n(c2c1)CC(C(=O)O)=Cc1cc(OC)ccc1-3`: 20 to 1000 nM and 1000 to 10000 nM.
Consider `COC(=O)c1ccc2c(C3CCCCC3)c3n(c2c1)CC(C(=O)N1CCOCC1)=Cc1cc(OC)ccc1-3`, for which the half-maximal inhibitory concentration (IC50) in assay [1] lay in the range of 20 to 1000 nM. For the same compound, the EC50 in the assay on HCV replicon (FRET assay, read-out: EC50) fell in the range of 10 to 1000 nM.
`COc1ccc2c(c1)C=C(C(=O)N1CCOCC1)Cn1c-2c(C2CCCCC2)c2ccc(C(=O)O)cc21` had an IC50 in assay [1] of 20 to 1000 nM. In addition, in the assay with HCV replicon (FRET assay, read-out: EC50), the EC50 lay in the range of 10 to 1000 nM.
Take `CN(C)S(=O)(=O)NC(=O)c1ccc2c(C3CCCCC3)c3n(c2c1)CC(C(=O)N1CCOCC1)Cc1cccnc1-3` (stereo not drawn): the 50% inhibitory concentration (IC50) in assay [1] lay within 20 to 1000 nM. In addition, in the assay with HCV replicon (FRET assay, read-out: EC50), the EC50 is 10 to 1000 nM.
In turn, `O=C(O)c1ccc2c(C3CCCCC3)c3n(c2c1)CC(C(=O)N1CCOCC1)=Cc1ccncc1-3` showed an IC50 in assay [1] of 20 to 1000 nM. The concentration for a half-maximal effect (EC50) with HCV replicon (FRET assay, read-out: EC50) fell in the range of 1000 to 10000 nM.
The corresponding values for `O=C(O)c1ccc2c(C3CCCCC3)c3n(c2c1)C=C(C(=O)N1CCOCC1)Cc1ccncc1-3` are over 1000 nM and over 10000 nM.
Take `COc1ccc2c(c1)C=C(C(=O)N1CCOCC1)Cn1c-2c(C2CCCCC2)c2ccc(C(=O)NS(=O)(=O)N(C)C)cc21`: the IC50 in assay [1] lay in the range of 20 to 1000 nM. Also, the 50% effective concentration (EC50) in the assay on HCV replicon is 10 to 1000 nM.
As to `CC(C)S(=O)(=O)NC(=O)c1ccc2c(C3CCCCC3)c3n(c2c1)CC(C(=O)N1CCOCC1)=Cc1ccccc1-3`, the half-inhibitory concentration (IC50) in assay [1] was in the range of 20 to 1000 nM. Further, the half-maximal effective concentration (EC50) with HCV replicon (FRET assay, read-out: EC50) was in the range of 10 to 1000 nM.
`CCS(=O)(=O)NC(=O)c1ccc2c(C3CCCCC3)c3n(c2c1)CC(C(=O)N1CCOCC1)=Cc1ccccc1-3`: in assay [1], the half-maximal inhibitory concentration (IC50) lay in the range of 20 to 1000 nM. The concentration for a half-maximal effect (EC50) in the assay on HCV replicon (FRET assay, read-out: EC50) was 10 to 1000 nM.
